{"source": "patent US11576987B2", "about": "“Compositions and methods of treating melanoma” (UNIVERSITY OF IOWA RESEARCH FOUNDATION, priority 2016, dated 2023)", "key": {"MCR1 expression": {"tested_on": "MCR1 expression", "assay": "Pharmacological enhancement of MCR1 expression in human melanoma cells by drug incubation", "assay_type": "cell-based", "conditions": "for MCR1 expression: metastatic melanoma cells", "source_text": "Melanoma if detected early can be cured by surgery, but metastatic melanoma is lethal. New therapies (e.g., immunotherapy; BRAF inhibition, BRAFi) and combinations extend life, but low response rates, acquired drug resistance, and serious side effects are major challenges to improving outcomes for disseminated disease (5 y survival 17%). Peptide-based radionuclide therapy targeted to the melanocortin-receptor type 1 (MCR1-RT) has long been considered a promising alternative; and MCR1-RT has achieved complete responses in mouse models (B16). However, MCR1 expression is heterogeneous/low in human melanoma, and as a result, no previous MCR1-RT study has employed successfully human melanoma cell xenografts. […] This introduces innovative Pb-specific chelator combined with a “click-cyclized” peptide (PSC-C-MCR1) to improve tumor:kidney ratio of radionuclide uptake 7-fold. An effective therapy for metastatic melanoma is developed that combines MCR1-RT with pharmacological agents (PBA; BRAFi/MEKi; HDACi) that enhance MCR1 expression.\nMelanoma is the fastest growing cancer incidence in the United States. Surgery combined with radiation can be curative at early stages. However, metastatic melanoma is almost uniformly fatal (5-yr survival 17%). Recent breakthrough targeted MAPKi therapies (e.g., BRAFi) and immunotherapies (e.g., PD-1 inhibitors) have improved outcomes, but low response rates, acquired drug resistance, and adverse side effects limit quality of life for metastatic melanoma patients. For example, approval of immune-checkpoint inhibitor ipilimumab was based on an improvement in overall survival of only 3.7 months (overall response <15%). Combination immunotherapies have improved response (up to 61%), but grade 3/4 adverse events (up to 55%) often lead to therapy discontinuation (up to 36%). For targeted therapies, BRAF inhibitor vemurafenib was approved based on overall survival at 6 months of 84% vs 64% in the control arm (dacarbazine). Combining BRAFi with MEK inhibitors (MEKi) has led to modest improvements, yet recurrence is virtually inevitable. The mechanisms of acquired drug resistance are complex, and include altered/alternative oncogenic pathways; tumor heterogeneity; and enhanced DNA repair. Melanocortin-receptor type 1 targeted radionuclide therapy (MCR1-RT) has long been considered a promising alternative treatment for melanoma; and MCR1-targeted α-particle therapy (^212Pb) has achieved complete responses in mice bearing mouse (B16) tumors that highly express MCR1. However, these studies have been confined primarily to mouse melanoma (B16) cells because MCR1 expression is heterogeneous/low in human melanoma.\nCombination therapies for metastatic melanoma are emerging as common practice (e.g., BRAFi plus MEK; and combination immunotherapies), but melanoma almost invariably develops resistance. MCR1-RT has long been considered a promising alternative, but previous therapy studies have been limited to the use of B16 mouse melanoma cells that highly express the MCR1 protein, because native MCR1 expression in human melanoma is heterogeneous/low."}, "MC1R expression": {"tested_on": "MC1R expression", "assay": "Real-time PCR analysis of MC1R expression in melanoma cells", "assay_type": "cell-based, human", "conditions": "substantiated by flow cytometry and radiopeptide binding", "protocol": "FIG. 10. Real-time PCR analysis of MC1R expression in A2058 and MEWO melanoma cells. A2058 cells were exposed to BRAFi GSK2118436, MEKi GSK1120212 and HDACi PBA for 24 h. Similarly, MEWO cells were treated with PBA and SAHA. Total RNA was isolated and reverse transcripted to cDNA. Real-time PCR was performed using 50 ng of each cDNA sample with labeled primer VIC-MC1R and FAM-NADPH. mRNA fold changes were calculated by ΔΔCt method and expressed as (n=3; Mean±SEM).\nqPCR measurements are included to measure the change in MCR1 mRNA with changes in the concentration and incubation time for each drug and combinations (FIG. 10). These experiments are carried out as in FIG. 10 according to manufacturers' protocols, cells are seeded into 6-well plates until ˜80% confluent. After drug treatments, total RNA is isolated (Qiagen RNeasy Mini Kit). 1 μg of total RNA from each cell sample is used for reverse transcription using a high capacity reverse transcription kit (Applied Biosystem). cDNA samples are kept at −80° C. until use. Upon use, cDNA templates are employed in the qRT-PCR using a Taqman Gene Expression Assay for human MC1R (Assay ID: Hs00267167_s1). Human 18S (Assay ID: Hs99999901_s1) and human GAPDH (Assay ID: Hs03929097_g1) are used as housekeeping gene controls. […] Reactions are carried out in Applied Biosystem 7900HT. mRNA level is calculated by comparative ΔΔCt method."}, "[1]": {"tested_on": "B16 mouse metastatic melanoma tumor model", "conditions": "60 m post injection; cited from earlier work"}, "[2]": {"tested_on": "B16 mouse metastatic melanoma tumor model", "assay": "Tumor and kidney accumulation of click cyclized MCR1 peptide in mouse studies", "assay_type": "in vivo", "conditions": "i.v. injection", "source_text": "(§1) The peptide backbone selected for the proposed investigation is based on a variant that was introduced previously with the addition of new evidence for improved internalization with the inclusion of a short polyethylene glycol linker between the chelator and the peptide backbone (FIG. 17). […] This peptide performance represents a 7-fold improvement in tumor:kidney ratio compared to the Re-cyclized peptide used previously. The use of the Re-cyclized peptide is for comparison to the previously published alpha-particle MCR1-targeted therapy study (using B16 mouse melanoma tumors). (Leachman S A, Cassidy P B, Chen S C, Curiel C, Geller A, Gareau D, Pellacani G, Grichnik J M, Malvehy J, North J, Jacques S L, Petrie T, Puig S, Swetter S M, Tofte S, Weinstock M A. Methods of Melanoma Detection. Cancer Treat Res. 2016; 167:51-105.) Thus, the DOTA-C-MCR1 (published previously) and new PSC-C-MCR1 peptides shown in FIG. 17 are used to take advantage of the observed improved tumor:kidney ratio.\n(§2) Preliminary data support the hypothesis that co-injection of PBA with [^203Pb]MCR1-targeted peptides can reduce kidney accumulation of the radiopeptide (FIGS. 14A-B), while improving tumor accumulation in mice bearing human metastatic melanoma tumors (FIG. 14B imaging; FIGS. 15A-B therapy). […]"}, "[3]": {"assay": "Tumor and kidney accumulation of click cyclized MCR1 peptide in mouse studies", "assay_type": "in vivo", "conditions": "kidney, iv, 90 min. post i.v. injection", "source_text": "as §1, §2"}, "metastatic melanoma": {"tested_on": "metastatic melanoma", "conditions": "patients, cited from earlier work"}, "[4]": {"tested_on": "BRAFi-resistant A375VR cells", "assay": "Clonogenic survival of BRAFi-resistant melanoma cells", "assay_type": "cell-based, human", "conditions": "5 μM vemurafenib in the absence of PBA", "protocol": "FIGS. 13A-13B. PBA treatment promotes cell death of BRAFi-resistant metastatic melanoma and upregulates MCR1 expression in a time dpe. (A) BRAFi-resistant A375VR cells were incubated with 5 μM vemurafenib in combination with ER-stress-relieving drug 4-PBA for up to 6 days. […] (B) Flow cytometry analysis of MCR1 expression in A2058 and A375 malignant melanoma cells. Cells were treated with 3 mmole 4-PBA for 4 h and 24 h (n=3). The treated and untreated (control) cells were stained with anti-MC1R-phycoerythrin (PE) monoclonal antibody conjugate. Fluorescence intensity was corrected by auto-fluorescence of cells without staining and data were expressed as relative fluorescence intensity (IF) (vs. control)±SD.\nAccumulation of misfolded-proteins causes upregulation and detachment of ER resident protein GRP78 from ER sensors proteins—activating the unfolded protein response (UPR) and downstream signaling pathways (including autophagy). […] Thus, the potential for a pharmacological treatment that would sensitize BRAFi-resistant cells to BRAFi by reducing ER-stress was considered. BRAFi-resistant A375VR melanoma cells were incubated with BRAFi vemurafenib alone and in combination with ER-stress relieving PBA."}}, "note": "Positions of bridges follow the written chain, without caps; N, C: chain ends. Non-standard residues stand in square brackets, D forms with d. Residues, ends and D or L forms follow the SMILES beside them. Groups on a side chain read outwards from the residue. Triazole bridges read from a SMILES are 1,4-linked. *: point of attachment. DOTA = O=C(O)CN1CCN(CC(=O)O)CCN(CC(=O)*)CCN(CC(=O)O)CC1; Lys(N3) = [N-]=[N+]=NCCCC[CH](N)C(=O)O; Nle = CCCC[CH](N)C(=O)O; Pra = C#CC[CH](N)C(=O)O; PEG2 = NCCOCCOCCC(=O)O"}
{"compound": "O=C(CCCCCCC(=O)Nc1ccccc1)NO", "note": "[Vorinostat]", "values": [{"measurement": "enhancement of MCR1 expression", "setting": "MCR1 expression; human melanoma cells, incubation with drug", "value": "up to 12 fold"}, {"measurement": "MCR1 expression by RT-PCR", "setting": "MC1R expression", "value": "Enhanced expression of MCR1"}]}
{"compound": "CCCCC(NC(C)=O)C(=O)NC1Cc2cn(nn2)CCCCC(C(=O)NC(CCCCNC(=O)CCOCCOCCNC(=O)CN2CCN(CC(=O)O)CCN(CC(=O)O)CCN(CC(=O)O)CC2)C(N)=O)NC(=O)C(Cc2c[nH]c3ccccc23)NC(=O)C(CCCNC(=N)N)NC(=O)C(Cc2ccccc2)NC(=O)C(Cc2c[nH]cn2)NC1=O", "note": "(stereo not shown) [[^68Ga]DOTA-C-MCR1, metal not drawn] (Ac-[Nle][Pra]HFRW[Lys(N3)]K([PEG2-DOTA])-NH2; triazole 2-7; configuration not given here)", "values": [{"measurement": "tumor:kidney ratio", "setting": "[1]", "value": 3.4}, {"measurement": "injected dose per gram (tumor)", "setting": "[2]", "value": "up to 16 % ID/g"}, {"measurement": "tissue uptake at 1.5 h", "setting": "[3]", "value": "< 5", "unit": "%ID/g"}]}
{"compound": "O=C(c1ccc(F)c(F)c1Nc1ccc(I)cc1F)N1CC(O)([C@@H]2CCCCN2)C1", "note": "[cobimetinib]", "values": [{"measurement": "MCR1 expression", "setting": "MCR1 expression", "value": "upregulate MCR1 expression"}]}
{"compound": "CC(C)(C)c1nc(-c2cccc(NS(=O)(=O)c3c(F)cccc3F)c2F)c(-c2ccnc(N)n2)s1", "note": "[dabrafenib]", "values": [{"measurement": "MCR1 expression", "setting": "MCR1 expression", "value": "upregulate MCR1 expression"}]}
{"compound": "CCCS(=O)(=O)Nc1ccc(F)c(C(=O)c2c[nH]c3ncc(-c4ccc(Cl)cc4)cc23)c1F", "note": "[vemurafenib]", "values": [{"measurement": "overall survival at 6 months", "setting": "metastatic melanoma; approval trial", "value": 84, "unit": "%"}, {"measurement": "slowing of tumor progression", "setting": "metastatic melanoma; metastatic melanoma", "value": "about 5.3 months"}, {"measurement": "clonogenic survival", "setting": "[4]", "value": "No change in clonogenic survival"}, {"measurement": "MCR1 expression", "setting": "MCR1 expression", "value": "upregulate MCR1 expression"}]}
{"compound": "ipilimumab: immune-checkpoint inhibitor", "values": [{"measurement": "improvement in overall survival", "setting": "metastatic melanoma; basis of approval", "value": 3.7, "unit": "months"}, {"measurement": "overall response", "setting": "metastatic melanoma", "value": "< 15", "unit": "%"}]}
